“And” between values parts separate entries of the source, which are not always exact repeats. Equal entries are not always repeated. Where two headings read alike, the source gives them in different places.

In assay [1] the test system is Beagle dogs. Nature of the assay: MgSO4 induced intestinal lavage in dogs. The class given is in vivo, dog. As to conditions: Canis lupus familiaris; po, 1 hour before oral MgSO4 (200 ml); liquid stools within 4 hours; read-out: MgSO4 induced intestinal lavage ED50 (95% c.l.). The protocol:
(§1) Beagle dogs of both sexes and varying in body weight were used. During the experiments, the dogs were individually housed in cages. They were uniquely identified by an ear tattoo number (received at the time of weaning). The animals were fasted overnight but were given free access to fresh tap water via automatic drinking nipples in the back of the cage.
Beagle dogs (of both sexes and varying in body weight, 16 hours deprived from food) were orally pretreated with the test compound (0.5 ml/kg) and challenged 1 hour later with an oral administration of magnesium sulphate (MgSO4.7H2O, 64 g/l, 0.26 M; 200 ml). The onset of MgSO4-induced intestinal lavage was assessed over a period of 4 hours after challenge. Liquid stools within 4 hours occured almost never in control animals treated with distilled water (3.0% false positives; n>100) and were considered to reflect significant acceleration of the MgSO4-induced intestinal lavage. Doses in the active dose range were given to five animals each, tested in separate experimental sessions including solvent-treated control animals.

Another assay addresses T1, 5HT3 receptor (Mus musculus, UniProt P23979).
T1 construct: Cells were homogenized in tris.HCl buffer; endogenous in cells; host or cells: NxG 108CC15 (NG108-15) cell membranes
T1 sequence (P23979 24-489): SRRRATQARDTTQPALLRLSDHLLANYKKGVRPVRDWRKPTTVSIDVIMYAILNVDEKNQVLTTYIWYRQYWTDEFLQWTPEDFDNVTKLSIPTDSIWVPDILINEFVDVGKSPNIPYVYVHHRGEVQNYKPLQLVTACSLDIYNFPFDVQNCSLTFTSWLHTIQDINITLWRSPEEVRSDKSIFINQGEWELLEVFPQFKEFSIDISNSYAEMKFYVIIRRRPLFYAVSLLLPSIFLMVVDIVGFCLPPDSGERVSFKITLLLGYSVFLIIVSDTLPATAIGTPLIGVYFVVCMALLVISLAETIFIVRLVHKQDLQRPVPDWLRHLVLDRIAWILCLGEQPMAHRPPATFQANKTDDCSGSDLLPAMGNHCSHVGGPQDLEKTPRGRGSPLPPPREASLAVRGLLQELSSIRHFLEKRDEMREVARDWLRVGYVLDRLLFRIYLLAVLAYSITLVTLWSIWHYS
Nature of the assay: In vitro 5HT3 receptor binding with [3H]GR 65630. The protocol:
The incubation was run for 60 minutes at 37° C. Labelled membranes were collected and […] by rapid filtration under suction over […] filters (presoaked in 0.1% polyethyleneimine for at least 1 hour) using a 40-well filtration manifold. […] All experiments were repeated independently at least two times. Radioactivity on the filters was counted in a Packard Tri-carb 1600CA liquid scintillation analyzer. Counting data were collected directly in a Macintosh SE personal computer and further transferred to a Macintosh II personal computer. Counting data from assays in the presence of a compound were automatically expressed as percent of total binding measured in the absence of test compound. Inhibition curves plotting percent of total binding versus the log concentrations of the test compound were automatically generated.

The test system of assay [2] is Beagle dogs. Nature of the assay: KleanPrep-induced intestinal lavage in dogs. The class given is in vivo, dog. As to conditions: for ED50: Canis lupus familiaris, oral pretreatment one hour earlier. The protocol: as §1
The dogs were orally pretreated with test compound or distilled water (0.5 ml/kg) and 1 hour later challenged by gavage with KleanPrep® solution. Dependent on the type of experiment, the KleanPrep® solution was administered more than once at 15 minutes intervals. The standard administration volume was 200 ml. The occurrence of liquid stools at 1, 2, 3, 4, 5 and 6 hours after the first administration of KleanPrep® was noted. The KleanPrep® solution consisted of polyethyleneglycol 3350 (59 g/l), sodium sulfate (5.685 g/l), sodium hydrogencarbonate (1.685 g/l), sodium chloride (1.465 g/l), potassium chloride (0.7425 g/l), aspartate (0.0494 g/l) and vanille (0.3291 g/l).
Each dose of the test compounds was given to 5 animals.

Setting [3] is: fourth experiment: 2×200 ml KleanPrep, relative to ED50 for within 4 hours.

As for `CN1C2CCCC1CC(NC(=O)c1nn(C)c3ccccc13)C2` (stereo not drawn) [(endo)-Granisetron], the ED50 in the assay on Beagle dogs [1] was determined as 0.014 mg/kg.
With `CN1[C@@H]2CC[C@H]1C[C@@H](OC(=O)c1cc(Cl)cc(Cl)c1)C2` [Bemesetron], the affinity on 5HT3 receptor corresponds to a Ki of 8 nM. Besides, the ED50 in the assay with Beagle dogs [1] came to 0.77 mg/kg.
Taken in the same sequence, the figures for `CC(C)n1c(=O)n(C(=O)N[C@H]2C[C@H]3CC[C@@H](C2)N3C)c2ccccc21` [BIMU-8] were 0.29 nM and 0.016 mg/kg.
As for `COc1cc(N)c(Cl)cc1C(=O)NC1CCN2CCCC1C2` (racemic) [(±)-Renzapride], on 5HT3 receptor, the Ki stood at 10 nM. Further, the ED50 with Beagle dogs [1] was 0.074 mg/kg.
Taken in the same sequence, the figures for `CCn1c(=O)n(C(=O)OC2C[C@H]3CC[C@@H](C2)N3C)c2ccccc21` (stereo partly drawn) [DAU-6236] were 6.6 nM and 0.049 mg/kg.
In the case of `Cc1nccn1CC1CCc2c(c3ccccc3n2C)C1=O` (racemic) [(±)-Ondansetron], the ED50 in the assay with Beagle dogs [1] stood at 0.097 mg/kg.
Consider `CN1[C@@H]2CC[C@H]1C[C@@H](OC(=O)c1c[nH]c3ccccc13)C2` [(endo)-Tropisetron], for which the ED50 with Beagle dogs [1] was found to be 0.074 mg/kg.
As to `CO[C@@H]1CN(CCCNc2nccc(=O)[nH]2)CC[C@@H]1NC(=O)c1cc(Cl)c(N)c2c1OC(C)(C)C2` (relative stereo) [Compound A, (−)-cis-4-amino-5-chloro-2,3-dihydro-N-[1-[3-[(3,4-dihydro-4-oxo-2-pyrimidinyl)amino]propyl]-3-methoxy-4-piperidinyl]-2,2-dimethyl-7-benzofurancarboxamide], in the assay with Beagle dogs [2] (read-out: ED50 liquid stools within 1 hour, fourth experiment: 2×200 ml KleanPrep), the 50% effective dose (ED50) worked out at 0.085 mg/kg. In addition, the 50% effective dose (ED50) in the assay on Beagle dogs [2] (fourth experiment: 2×200 ml KleanPrep, read-out: ED50 liquid stools within 4 hours) is 0.0036 mg/kg. In the assay on Beagle dogs [2] (setting [3]), the “dose increment for liquid stools within 1 hour” value is 24 times, the “dose increment for liquid stools within 2 hours” value was 3 times and the “dose increment for liquid stools within 3 hours” value came to 1.1 times. Moreover, the “dogs displaying liquid stools within 2 hours after KleanPrep administration” value in the assay with Beagle dogs [2] (second experiment: single 200 ml KleanPrep, 0.16 mg/kg p.o. one hour earlier) is on record as “three out of five”. Further, in the assay on Beagle dogs [2] (third experiment: 4×200 ml KleanPrep at 15 minute intervals, 0.16 mg/kg p.o. one hour earlier), the “dogs displaying first liquid stool within 2 hours after first administration of KleanPrep” value was “all five”. The “time of first liquid stool after first administration of KleanPrep (individual dogs)” value with Beagle dogs [2] (third experiment: 4×200 ml KleanPrep at 15 minute intervals, 0.16 mg/kg p.o. one hour earlier, 0.16 mg/kg) was 38 min and 39 min and 42 min and 52 min and 77 min. Moreover, the Ki at 5HT3 receptor (N×G 108CC15 cell membranes, [3H]GR 65630 2 nM, 60 min 37° C, logarithmic mean and 95% confidence limits, read-out: 5HT3 receptor Ki (95% c.l.)) was 0.58 nM. Further, the ED50 in the assay with Beagle dogs [1] was 0.0027 mg/kg.
As for `Cn1cc(C(=O)[C@@H]2CCc3nc[nH]c3C2)c2ccccc21` [(−)-YM-060], the Ki at 5HT3 receptor amounted to 0.14 nM. In addition, in the assay on Beagle dogs [1], the ED50 was determined as 0.0012 mg/kg.
For the molecule `COc1cc(N)c(Cl)cc1C(=O)NC1CN2CCC1CC2` (racemic) [(±)-Zacopride], the ED50 with Beagle dogs [1] is 0.023 mg/kg.

For orientation: ED50 means the dose that gives a 50% effect, or the effect in half of the subjects. The term Ki denotes a measure of affinity in units of concentration, obtained from inhibition or displacement.

The values above are taken from patent US6555546B2, “Use of 5HT3 antagonists for promoting intestinal lavage” (Janssen Pharmaceutics, N.V., priority 1997, dated 2003).
